Read-outs that look alike come from different tables or passages of the source.
Assays:
Tilletia caries = assay: Treatment of oat seeds infested with Tilletia caries (spore germination); format: in vivo
Botrytis cinerea = assay: Prophylactic leaf treatment of tomato plants against Botrytis cinerea; format: in vivo; settings: concentration of 0.025 of the active agent (unit not given)
Helminthosporium gram = settings: about 5 weeks
Experimental: Treatment of barley seeds infested with Helminthosporium gram
After emergence, the plants were subjected to illumination for 12 hours per day. After about 5 weeks the infested plants were counted and the total number of plants for each test were also counted. The active agents tested were used as pulverulent compositions.

Plasmopara viticola = assay: Prophylactic leaf treatment of grapevines in the hothouse against Plasmopara viticola; format: in vivo
Experimental: Effects of prophylactic leaf treatment of grapevines in the hothouse against Plasmopara viticola
Young grapevine plants having from 5 to 8 leaves were sprayed dripping wet with the concentrations of active agents stated in the table below. After drying of the spray deposit the leaves were sprayed with an aqueous suspension of sporangia of the fungus (about 20,000 per ml); the spraying was applied to the bottom side of the leaves. The plants were then immediately incubated in a hothouse at a temperature of 22° to 24° C. and at maximum water saturation in the atmosphere. Beginning with the second day the humidity of the air was reduced for 3 to 4 days to normal level (30 to 70% saturation) and was then maintained for another day on the level of full saturation. Subsequently, the percentage portion of the fungus infested surface of each leaf was noted and the average per treatment was calculated in order to determine the fungicidal activity. This was done on the basis of the following formula: [formula]
The active compounds were applied in the form of a 20% concentration spray powder.

Fusarium avenaceum = assay: Threshold concentration test in case of Fusarium avenaceum (infested soil, garden peas); format: in vivo; settings: for number of sound peas: 20 grains per dish, 18 days at 20-24° C.; for root evaluation (1-4): 18 days
In short: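 Soil heavily infested with Fusarium avenaceum was mixed uniformly with a 20% powder formulation of active agent, then sown immediately with 20 garden pea seeds ('Wunder von Kelvedon') per dish. After 18 days in a greenhouse at 20° to 24° C., sound plants were counted and roots scored on a 1–4 scale.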

Pythium ultimum = assay: Threshold concentration test for use of the compounds against Pythium ultimum (infested soil, garden peas); format: in vivo; design: key to root evaluation (1-4): 4: white roots without fungous necrosis; 3: white roots, minor fungous necrosis; 2: brown roots, already more pronounced fungous necrosis; 1: heavy fungous necrosis, roots rotted; settings: for root evaluation (1-4): 3 weeks; for number of sound peas: 20 grains per dish, 3 weeks at 20-24° C.
In short: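 Pulverulent agents at 20% concentration mixed evenly into soil heavily infested with Pythium ultimum, then garden peas ('Wunder von Kelvedon', 20 per dish) sown at once. After three weeks at 20–24 °C in a hothouse, sound peas counted and roots scored on a 1–4 scale.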

Piricularia oryzae = format: in vivo; settings: concentration of active agent 0.1 (percentages); 5 days
Venturia inaequalis = assay: Prophylactic leaf treatment of apples in open field test against Venturia inaequalis; format: in vivo; settings: 3 weeks
[1] = test system: Helminthosporium gramineum; assay: Seed treatment in open field tests for infestation by Helminthosporium gramineum (barley); format: in vivo; settings: summer barley; 50 g active agent/100 kg barley; about 3 months
Experimental: Seed treatment in open field tests for infestation by Helminthosporium gramineum
The active agents were used in the form of pulverulent compositions. After about 8 months in case of winter barley and after about 3 months in case of summer barley the infested plants were counted and the activity was calculated by the formula [formula]

[2] = concentration of active agent 0.025 (unit not given)
[3] = concentration of active agent 0.005 (in gram)
[4] = concentration of active agent 0.025 (in gram)
[5] = concentration of active agent 0.005 (unit not given)

| Structure (SMILES) | % activity (Tilletia caries; 10 g active agent per 100 kg) [%] | % activity (Tilletia caries; 20 g active agent per 100 kg) [%] | % activity (Tilletia caries; 50 g active agent per 100 kg) [%] | % activity (Botrytis cinerea) [%] | % activity (Helminthosporium gram; 50 g active agent per 100 kg) [%] | % activity (Plasmopara viticola; [2]) [%] | root evaluation (1-4) (Pythium ultimum; 20 mg/l soil) | number of sound peas (Pythium ultimum; 20 mg/l soil) | root evaluation (1-4) (Pythium ultimum; 40 mg/l soil) | number of sound peas (Pythium ultimum; 40 mg/l soil) | root evaluation (1-4) (Pythium ultimum; 80 mg/l soil) | number of sound peas (Pythium ultimum; 80 mg/l soil) | % activity (Piricularia oryzae) [%] | % activity (Venturia inaequalis; [3]) [%] | % activity (Venturia inaequalis; [4]) [%] | % activity [1] [%] | % activity (Plasmopara viticola; [5]) [%] | also measured |
| --- | --- | --- | --- | --- | --- | --- | --- | --- | --- | --- | --- | --- | --- | --- | --- | --- | --- | --- |
| CCS(=O)(=O)c1nnc(C(=O)NC2CCCCCCC2)s1 [5-ethylsulfonyl-1,3,4-thiadiazole-2-carboxylic acid-cyclooctylamide] | 100 | 100 | 100 | 93 | 98 |  |  |  |  |  |  |  |  |  |  |  |  |  |
| CCCCCCCCNC(=O)c1nnc(S(=O)(=O)CC)s1 [5-ethylsulfonyl-1,3,4-thiadiazole-2-carboxylic acid-octylamide] | 91 | 93 | 98 | 87 |  | 90 |  |  |  |  |  |  |  |  |  |  |  |  |
| CCCCCCS(=O)(=O)c1nnc(C#N)s1 [5-hexylsulfonyl-1,3,4-thiadiazole-2-carbonitrile] |  |  | 90 | 86 |  | 90 |  |  |  |  |  |  |  |  |  |  |  | number of sound peas (Fusarium avenaceum; 25 mg/l soil): 19; root evaluation (1-4) (Fusarium avenaceum; 25 mg/l soil): 4; number of sound peas (Fusarium avenaceum; 50 mg/l soil): 19; root evaluation (1-4) (Fusarium avenaceum; 50 mg/l soil): 4; number of sound peas (Fusarium avenaceum; 100 mg/l soil): 19; root evaluation (1-4) (Fusarium avenaceum; 100 mg/l soil): 4 |
| CC(C)NC(=O)c1nnc([S+](C)[O-])s1 (stereo not shown) [5-methylsulfinyl-1,3,4-thiadiazole-2-carboxylic acid-isopropylamide] |  | 100 | 100 |  | 100 | 90 | 4 | 19 | 4 | 19 | 4 | 20 | 90 | 71 | 90 |  |  | % activity (Helminthosporium gram; 20 g active agent per 100 kg): 96% |
| CCCNC(=O)c1nnc([S+](C)[O-])s1 (stereo not shown) [5-methylsulfinyl-1,3,4-thiadiazole-2-carboxylic acid-propylamide] | 99 | 100 | 100 |  | 100 | 99 | 4 | 14 | 4 | 15 | 4 | 15 |  | 62 | 99.7 | 97 | 75 | % activity (Helminthosporium gram; 10 g active agent per 100 kg): 75%; % activity (Helminthosporium gram; 20 g active agent per 100 kg): 98% |
| CS(=O)(=O)c1nnc(C(=O)NC2CC2)s1 [5-methylsulfonyl-1,3,4-thiadiazole-2-carboxylic acid-cyclopropylamide] |  | 98 | 100 | 75 |  |  | 1 | 13 | 4 | 20 | 4 | 20 |  |  |  |  |  |  |
| CCNC(=O)c1nnc(S(C)(=O)=O)s1 [5-methylsulfonyl-1,3,4-thiadiazole-2-carboxylic acid-ethylamide] | 99.2 | 99.2 | 98 |  | 93 | 97 | 4 | 15 | 4 | 15 | 4 | 15 | 90 | 81 | 97 | 100 | 81 |  |
| CC(C)NC(=O)c1nnc(S(C)(=O)=O)s1 [5-methylsulfonyl-1,3,4-thiadiazole-2-carboxylic acid-isopropylamide] | 100 | 100 | 100 |  | 90 | 96 | 4 | 15 | 4 | 18 | 4 | 15 | 90 | 85 | 100 | 100 | 76 |  |
